Laboratory results from ChEMBL document CHEMBL1138256 (Bioorg Med Chem Lett, 2007).
pIC50: −log10 of the molar value. Active and inactive are the calls of the source. The calls are words filed in the database; no cut-off is given here.

System: Clostridium botulinum
Experiment: Inhibition of Clostridium botulinum A recombinant light chain protease LC/A by at 100 uM by FRET assay

With O=C(NO)c1cc2ccc(Cl)cc2[nH]1 the Activity was “inactive”.

System: not listed separately
Experiment: (§1) Inhibition of Clostridium botulinum A recombinant light chain protease LC/A by FRET assay

In order of falling pIC50:
1. O=C(/C=C/c1ccc(Cl)cc1C(F)(F)F)NO  6.22
2. O=C(/C=C/c1ccc(Cl)cc1Br)NO  6.15
3. Cc1cc(Cl)ccc1/C=C/C(=O)NO  6.10
4. O=C(/C=C/c1ccc(Cl)cc1Cl)NO [CINNAMIC ACID HYDROXAMATE]  6.05
5. O=C(/C=C/c1ccc(Cl)cc1[N+](=O)[O-])NO  5.70
6. O=C(/C=C/c1ccc(Cl)cc1F)NO  5.36
7. CSc1cc(Cl)ccc1/C=C/C(=O)NO  5.29
8. COc1cc(Cl)ccc1/C=C/C(=O)NO  5.05
9. N#Cc1cc(Cl)ccc1/C=C/C(=O)NO  4.92
10. O=C(/C=C/c1ccc(Cl)cc1O)NO  4.89
11. CS(=O)(=O)c1cc(Cl)ccc1/C=C/C(=O)NO  4.77
12. O=C(NO)c1ccc2cc(Cl)ccc2c1  4.68
13. Nc1cc(Cl)ccc1/C=C/C(=O)NO  4.60
14. Cn1c(C(=O)NO)cc2ccc(Cl)cc21  4.42
15. O=C(NO)C1=Cc2ccc(Cl)cc2C1  4.39
16. O=C(NO)c1cc2ccc(Cl)cc2s1  4.35
17. O=C(NO)c1ccc2cc(Br)ccc2c1  4.15

System: Clostridium botulinum
Experiment: as §1

For O=C(NO)c1cc2ccc(Cl)cc2[nH]1, the Activity was “inactive”.
